# Measurements as given in the supplement of paper PMC10331698.
# ± gives the standard deviation of the averaged measurements.
# Experiments:
# Perfluorooctanoic acid = compound: O=C(O)C(F)(F)C(F)(F)C(F)(F)C(F)(F)C(F)(F)C(F)(F)C(F)(F)F [Perfluorooctanoic acid]; test: level (log10 ratio to DMSO vehicle control); higher = higher biomarker level / cell amount than vehicle control; conditions: in DMSO
# Description: (§1)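 BioMAP Diversity Plus panel of 12 human primary cell co-culture systems (3C, 4H, LPS, SAg, BT, BF4T, BE3C, CASM3C, HDF3CGF, KF3CT, MyoF, Mphg). Compounds were added 1 h before stimulation and left for 24 h (MyoF 48 h; BT 72 h for soluble read-outs or 6 d for IgG). Biomarkers were read by ELISA, cytotoxicity by SRB, PBMC viability and proliferation by Alamar Blue. Each well value was divided by the mean of 8 DMSO control wells on the same plate and log10 transformed; duplicate blinded samples were tested at 4 concentrations.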
# [1] = compound: C=CC(=O)OCC(F)(F)C(F)(F)C(F)(F)C(F)(F)C(F)(F)C(F)(F)C(F)(F)C(F)F [1H,1H,9H-Perfluorononyl acrylate]; test: as above; conditions: in DMSO
# Description: as §1
Test System,level (log10) (Perfluorooctanoic acid; 6700 nM),level (log10) (Perfluorooctanoic acid; 20000 nM),level (log10) (Perfluorooctanoic acid; 60000 nM),level (log10) ([1]; 6700 nM),level (log10) ([1]; 20000 nM),level (log10) ([1]; 60000 nM)
LPS:CD142/Tissue Factor,0.0445 ± 0.056,0.008 ± 0.089,0.042 ± 0.017,0.019 ± 0.025,0.0415 ± 0.026,-0.015 ± 0.013
LPS:CXCL8/IL-8,0.0155 ± 0.021,0.033 ± 0.014,0.146 ± 0.057,-0.001 ± 0.047,0.0095 ± 0.023,-0.023 ± 0.028
LPS:IL-1alpha,0.0135 ± 0.0035,-0.0205 ± 0.043,-0.007 ± 0.017,0.04 ± 0.028,0.0435 ± 0.03,0.0325 ± 0.053
LPS:M-CSF,0.0255 ± 0.054,-0.016 ± 0.1,0.06 ± 0.078,0.0015 ± 0.032,-0.0025 ± 0.0092,-0.0265 ± 0.057
LPS:SRB,-0.01 ± 0.011,0.0085 ± 0.012,-0.0265 ± 0.0064,-0.006 ± 0.0028,0.003 ± 0.0042,-0.0055 ± 0.011
LPS:sPGE2,0.0065 ± 0.016,-0.067 ± 0.02,-0.159 ± 0.064,-0.046 ± 0.0071,-0.123 ± 0.053,-0.15 ± 0.11
LPS:sTNF-alpha,0.032 ± 0.0099,0.0305 ± 0.021,0.0085 ± 0.013,0.085 ± 0.028,0.0465 ± 0.042,0.004 ± 0.086
SAg:CCL2/MCP-1,0.0005 ± 0.0021,0.0025 ± 0.011,0.048 ± 0.0057,-0.0425 ± 0.015,-0.0565 ± 0.005,-0.033 ± 0.13
SAg:CD38,-0.008 ± 0.0085,-0.012 ± 0.023,-0.0405 ± 0.0064,-0.0395 ± 0.035,-0.0245 ± 0.0035,-0.031 ± 0.011
SAg:CD40,0.002 ± 0.013,-0.017 ± 0.014,-0.0415 ± 0.012,-0.027 ± 0.021,-0.0725 ± 0.023,-0.133 ± 0.026
SAg:CD62E/E-Selectin,0.009 ± 0.0057,0.015 ± 0.0085,0.086 ± 0.0014,-0.0345 ± 0.016,-0.0595 ± 0.015,-0.121 ± 0.052
SAg:CD69,-0.0095 ± 0.0035,-0.0265 ± 0.011,-0.0355 ± 0.016,-0.0475 ± 0.028,-0.0395 ± 0.03,-0.099 ± 0.018
SAg:CXCL8/IL-8,0.015 ± 0.016,0.0165 ± 0.028,0.0745 ± 0.029,-0.068 ± 0.0028,-0.0845 ± 0.026,-0.0975 ± 0.14
SAg:CXCL9/MIG,-0.0085 ± 0.0021,-0.008 ± 0.0028,0.004 ± 0.017,-0.0135 ± 0.0021,0.003 ± 0.0099,-0.0155 ± 0.0078
SAg:PBMC Cytotoxicity,0.0195 ± 0.0021,0.022 ± 0.0085,0.042 ± 0.016,-0.015 ± 0.0057,-0.0795 ± 0.0092,-0.194 ± 0.1
SAg:Proliferation,0.044 ± 0.0085,0.041,0.016 ± 0.025,-0.024 ± 0.0014,-0.166 ± 0.029,-0.58 ± 0.14
SAg:SRB,-0.018 ± 0.013,0.0045 ± 0.012,-0.053 ± 0.017,-0.0035 ± 0.0035,-0.0055 ± 0.0021,-0.007 ± 0.021
